# Patent publication US20100323955A1, “METHODS FOR TREATING OBESITY AND OBESITY RELATED DISEASES AND DISORDERS” (AMYLIN PHARMACEUTICALS, INC., priority 2007, published 2010)
# Experiments:
# [1] = Example 5: amylin and rimonabant (CB-1 antagonist) in DIO rats, body weight and body composition; format: in vivo, rat; conditions: after two weeks, FIG. 12C
# Protocol: These rats were developed by Barry Levin from a line of Crl:CD®(SD)BR rats that are prone to become obese on a diet relatively high in fat and energy. They were housed individually in shoebox cages at 22 C in a 12/12-hour light dark cycle. […] Rats were habituated to oral gavage for 1 week prior to treatment. Rimonabant was administered at a range of doses (0.1, 0.3, 1.0, 3.0. 10 mg/kg/day) by oral gavage. Amylin (dissolved in 50% DMSO sterile water) or vehicle was administered by mini-pump (100 μg/kg/day). Rimonabant was always delivered just prior to lights out. Food intake and body weight were measured at 1 and 2 weeks post-treatment. Body composition was measured prior to and after drug treatment using NMR (Echo Medical Systems, Houston, Tex.). For body composition measurements, rats were briefly placed (˜1 min) in a well-ventilated plexiglass tube that was then inserted into a specialized rodent NMR machine. Rats were scanned prior to pump implantation and on the final day of the experiment. This enabled the calculation of changes in actual grams of fat and dry lean tissue (e.g., grams of body fat after treatment−grams of body fat at baseline=change in grams of body fat) and changes in % body composition for fat and dry lean tissue (e.g., % body fat after treatment−% body fat at baseline=change in % body fat).
# [2] = Example 4: amylin and phentermine in DIO rats, body weight and body composition; format: in vivo, rat; conditions: after two weeks, FIG. 11C
# Protocol: The combination of amylin and catecholaminergic agonist, phentermine, were also tested for effects on changes in body weight and body composition. Phentermine is classically referred to as a catecholaminergic agonist as it actually hits NA/5-HT receptors. DIO male rats were fattened and divided into four treatment groups, as described above. Each group was implanted with subcutaneous osmotic mini-pumps and/or inserted with an oral gavage, designed to deliver vehicle, phentermine (10 mg/kg/day), amylin (100 μg/kg/day) or phentermine (10 mg/kg/day)+amylin (100 μg/kg/day) for a 14 day period. The mini-pump contained either vehicle (50% DMSO in water) or amylin while the oral gavage administered either sterile water or phentermine Body weight was recorded daily and body composition was measured prior to and after drug treatment using NMR.
# [3] = Example 6: amylin and exendin-4 analog in DIO rats, body weight and body composition; format: in vivo, rat; conditions: after two weeks, FIG. 15C
# Protocol: […]. Prior to drug administration rats had typically attained a mean body weight of 500 g Exendin-4 analog was administered by minipump at a range of doses (0.3, 1, 3, 10, 30 μg/kg/day). Amylin (dissolved in 50% DMSO in water) or vehicle was administered by mini-pump (100 μg/kg/day). Body weight and food intake was recorded daily. Body composition was measured prior to and after drug treatment using NMR (Echo Medical Systems, Houston, Tex.). For body composition measurements, rats were briefly placed (˜1 min) in a well-ventilated plexiglass tube that was then inserted into a specialized rodent NMR machine. Rats were scanned prior to pump implantation and on the final day of the experiment. This enabled the calculation of changes in actual grams of fat and dry lean tissue (e.g., grams of body fat after treatment−grams of body fat at baseline=change in grams of body fat) and changes in % body composition for fat and dry lean tissue (e.g., % body fat after treatment−% body fat at baseline=change in % body fat).
# [4] = Example 3: serum leptin levels (immunoassay) in DIO prone and normal HSD rats after amylin; format: in vivo, rat; conditions: amylin 100 μg/kg/day, 14 days, FIG. 8
# Protocol: DIO prone and normal HSD rats were divided into three treatment groups. Two groups were implanted with subcutaneous osmotic mini-pumps (DURECT Corp., Cupertino, Calif.) designed to deliver vehicle or amylin (100 μg/kg/day) and the third group was pair-fed to the amount consumed by the amylin-treated group for a 14 day period. Serum leptin levels were determined by immunoassays using a commercial kit (Linco Research, Inc., St. Charles, Mo.). […] Thus, DIO prone rats are hyper-leptinemic.
# [5] = Example 4: amylin and sibutramine in DIO rats, body weight and body composition; format: in vivo, rat; conditions: after two weeks, FIG. 10C
# Protocol: (§1) Rat amylin was dissolved in 50% DMSO in sterile water and sibutramine was dissolved in sterile water. Each group was implanted with subcutaneous osmotic mini-pumps designed to deliver vehicle, sibutramine (3 mg/kg/day) or amylin (100 μg/kg/day) for a 14 day period. Body weight and food intake were recorded daily. Body composition was measured prior to and after drug treatment using NMR (Echo Medical Systems, Houston, Tex.). For body composition measurements, rats were briefly placed (˜1 min) in a well-ventilated plexiglass tube that was then inserted into a specialized rodent NMR machine. Rats were scanned prior to pump implantation and on the final day of the experiment. This enabled the calculation of changes in actual grams of fat and dry lean tissue (e.g., grams of body fat after treatment−grams of body fat at baseline=change in grams of body fat) and changes in % body composition for fat and dry lean tissue (e.g., % body fat after treatment−% body fat at baseline=change in % body fat).
# [6] = Example 7: amylin and PYY(3-36) in DIO rats, body weight and body composition; format: in vivo, rat; conditions: after two weeks, FIG. 16C
# Protocol: as §1, with “Food intake and body weight” for “Rat amylin”, “was” for “was dissolved in 50% DMSO in sterile water and sibutramine was dissolved in sterile water. Each group was implanted with subcutaneous osmotic mini-pumps designed to deliver vehicle, sibutramine (3 mg/kg/day) or amylin (100 μg/kg/day) for a 14 day period. Body weight and food intake were”
# [7] = Example 8: 24-week randomized, double-blind clinical study of pramlintide and metreleptin in overweight and obese subjects; format: in vivo, human; conditions: for rate of change in body weight, late rate (12-20 weeks): 24-week study, FIG. 24
# Protocol: To evaluate inter alia the safety, tolerability and effect of the combination of an amylin agonist (pramlintide) and a leptin (metreleptin) on changes in body weight, a 24-week, randomized, double-blind, active-drug-controlled, multicenter study was conducted under USFDA approved protocols. Secondary objectives of the study were the determination of the pharmacokinetics of pramlintide and leptin, waist circumference, rate of change in body weight, and patient reported outcomes including for example without limitation perception of well-being related to weight change and mood. The study enrolled overweight and obese subjects with defined BMI ([…]), with enrollment statistics as provided in Table 2. […] Subjects treated with pramlintide/metreleptin lost an average of 25 pounds from the start of the 24-week study compared with an average of 17 pounds for subjects treated with pramlintide alone.
# In an initial lead-in phase, all subjects received dietary instructions and treatment with pramlintide at 180 mcg BID for two weeks, followed by pramlintide at 360 mcg BID for two weeks. Subjects who completed the 4-week lead-in period and who lost 2-8 percent body weight during this period were eligible to continue the study. The term “enrolled” (Table 2) refers to subjects (N=177) receiving at least one dose of pramlintide during the lead-in period. The term “non-randomized” refers to subjects not continuing in the study past the lead-in period. The term “evaluable” refers to subjects who completed Visit 9 (Week 16) study procedures and adequately complied with the study protocol.
# After the 4-week lead-in period, for the remaining 20 weeks of the study the subjects were randomized in a 2:2:1 ratio to one of three groups with BID treatment of 1) pramlintide 360 mcg/metreleptin 5 mg (“Leptin+Pramlintide”); 2) pramlintide 360 mcg/placebo (“Pramlintide”); or 3) metreleptin 5 mg/placebo (“Leptin”).
compound,measurement,setting,value
"Cc1c(C(=O)NN2CCCCC2)nn(-c2ccc(Cl)cc2Cl)c1-c1ccc(Cl)cc1 [rimonabant, reference compound]",changes in body protein (lean (protein) mass),[1],relatively equivalent increase in lean (protein) mass
"CC(C)(N)Cc1ccccc1 [phentermine, reference compound]",changes in body protein (lean (protein) mass),[2],unchanged or tended to be lost
^14Leu-exendin-4 [Exendin-4 analog],changes in body protein (lean (protein) mass),[3],relatively equivalent increase in lean (protein) mass
Rat amylin,"plasma (serum) leptin levels, DIO prone animals",[4]; DIO prone rats,significantly reduced
same,"plasma (serum) leptin levels, normal animals",[4]; normal HSD rats,significantly reduced
same,changes in body protein (lean (protein) mass),[5],increase in lean (protein) mass
same,changes in body protein (lean (protein) mass),[3],relatively equivalent increase in lean (protein) mass
same,changes in body protein (lean (protein) mass),[1],relatively equivalent increase in lean (protein) mass
same,changes in body protein (lean (protein) mass),[6],increase in lean (protein) mass
same,changes in body protein (lean (protein) mass),[2],preserved lean (protein) mass
"CC(C)CC(N(C)C)C1(c2ccc(Cl)cc2)CCC1 (stereo not drawn) [sibutramine, reference compound]",changes in body protein (lean (protein) mass),[5],relatively unchanged
"CC[C@H](C)[C@H](NC(=O)[C@@H]1CCCN1C(=O)CNC(=O)[C@H](Cc1ccccc1)NC(=O)[C@H](CC(N)=O)NC(=O)[C@H](CC(N)=O)NC(=O)[C@H](CO)NC(=O)[C@H](CO)NC(=O)[C@H](Cc1c[nH]cn1)NC(=O)[C@@H](NC(=O)[C@H](CC(C)C)NC(=O)[C@H](Cc1ccccc1)NC(=O)[C@H](CC(N)=O)NC(=O)[C@H](C)NC(=O)[C@H](CC(C)C)NC(=O)[C@H](CCCNC(=N)N)NC(=O)[C@H](CCC(N)=O)NC(=O)[C@@H](NC(=O)[C@H](C)NC(=O)[C@@H]1CSSC[C@H](NC(=O)[C@@H](N)CCCCN)C(=O)N[C@@H](CC(N)=O)C(=O)N[C@@H]([C@@H](C)O)C(=O)N[C@@H](C)C(=O)N[C@@H]([C@@H](C)O)C(=O)N1)[C@@H](C)O)C(C)C)C(=O)N[C@@H](CC(C)C)C(=O)N1CCC[C@H]1C(=O)N1CCC[C@H]1C(=O)N[C@H](C(=O)N[C@@H](CC(N)=O)C(=O)N[C@H](C(=O)NCC(=O)N[C@@H](CO)C(=O)N[C@@H](CC(N)=O)C(=O)N[C@H](C(=O)N[C@@H](Cc1ccc(O)cc1)C(N)=O)[C@@H](C)O)C(C)C)[C@@H](C)O [pramlintide, ^25,28,29Pro-h-amylin]",Mean Change in Body Weight (kg) over lead-in period,"[7]; 4-week lead-in, all subjects received pramlintide 180 then 360 mcg BID, columns name the later randomization groups",-3.65 kg
same,"rate of change in body weight, late rate (12-20 weeks)",[7],approached a late rate of zero
same,body weight reduced on average at the end of the 24-week study,"[7]; overweight and obese subjects, pramlintide 360 mcg BID, metreleptin 5 mg BID, p<0.001",8.4%
recombinant methionyl human leptin [metreleptin],"rate of change in body weight, late rate (12-20 weeks)",[7],approached a late rate of zero
